Patent US20250188085A1, “COMPOSITIONS AND METHODS FOR INHIBITION OF RAS” (THERAS, INC., priority 2022, published 2025)
pIC50: −log10 of the molar value.

Tests used:
[1] = target: T1, Avi-KRAS G12C (1-169) GppNHp/RAF1 RBD-3×FLAG (52-151) (Homo sapiens, UniProt P01116, G12C); test: Raf1 RBD-KRAS G12C-GppNHp disruption (protein:protein interaction HTRF assay); type: biochemical
T1 construct: Avi-KRAS G12C (1-169) GppNHp/RAF1 RBD-3×FLAG (52-151)
Procedure, shortened: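 HTRF measuring disruption of 50 nM Avi-KRAS G12C (1-169) loaded with GppNHp binding RAF1 RBD-3×FLAG (52-151), in pH 7.5 Tris buffer with 5 mM MgCl2, 0.1% BSA, 10% DMSO. KRAS preincubated with compound 1 h, then RBD 1 h, then detection reagents 1 h, all at room temperature. Compound titration 30-0.02 μM; activity expressed as percent of DMSO control.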

[2] = target: T2, GDP-loaded KRAS4b (amino acids 1-169) G12C/C118S protein (Homo sapiens, UniProt P01116, C118S/G12C); test: Covalent cysteine 12 modification by MALDI-TOF MS, GDP-loaded KRAS G12C; type: binding; settings: 15 minutes reaction time point
T2 construct: KRAS4b (amino acids 1-169) G12C/C118S protein; made in house
Procedure, shortened: (§1)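 KRAS4b 1-169 G12C/C118S loaded with GDP, GppNHp or GTP was used at 1 μM in 20 mM HEPES, 150 mM NaCl, 1 mM MgCl2, pH 7.3, and incubated with compound (5 mM DMSO stock) at room temperature in the dark. % modification at 15 min is adduct peak height over total protein peak heights by linear-mode MALDI-TOF.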

pERK in NCI-H358 cells = test: Cell-based pERK HTRF assay; settings: Homo sapiens, NCI-H358, 0.5 h, 30 min incubation, read-out: pERK in NCI-H358 cell inhibition IC50
Procedure, shortened: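 Cells seeded at 4×10^4/well in RPMI with 10% FBS, then next day treated for 30 min with a 9-point, 3-fold series from 75 μM top concentration at 0.25% DMSO. Lysates were read for pERK by HTRF (d2/Eu cryptate antibodies) after 4–24 h at room temperature, emission at 615 nm.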

[3] = target: T3, GTP-loaded KRAS4b (amino acids 1-169) G12C/C118S protein (Homo sapiens, UniProt P01116, C118S/G12C); test: Covalent cysteine 12 modification by MALDI-TOF MS, GTP-loaded KRAS G12C; type: binding; settings: 15 minutes reaction time point
T3 construct: KRAS4b (amino acids 1-169) G12C/C118S protein; made in house
Procedure, shortened: as §1

[4] = target: T4, GppNHp-loaded KRAS4b (amino acids 1-169) G12C/C118S protein (Homo sapiens, UniProt P01116, C118S/G12C); test: Covalent cysteine 12 modification by MALDI-TOF MS, GppNHp-loaded KRAS G12C; type: binding; settings: 15 minutes reaction time point
T4 construct: KRAS4b (amino acids 1-169) G12C/C118S protein; made in house
Procedure, shortened: as §1

pIC50 [1]: ≥ 6.30 | GDP-KRAS G12C percent of modification [2]: B (50≤percent of modification <70%) | pIC50 (pERK in NCI-H358 cells): 6.00 to 7.00 | GTP-KRAS G12C percent of modification [3]: C (10%≤modification <50%) | GppNHp-KRAS G12C percent of modification [4]: A (percent of modification ≥70%)
Compound: C=CC(=O)N1CC[C@@H](Oc2nc(OC[C@@]34CCCN3C[C@H](F)C4)nc3c(Cl)c(-c4ccc(F)c5sc(N)c(C#N)c45)ncc23)[C@@H]1COC [Compound 129]
